Data reported in article PMC8466962, “Isolation and Biological Characterization of Homoisoflavanoids and the Alkylamide N-p-Coumaroyltyramine from Crinum biflorum Rottb., an Amaryllidaceae Species Collected in Senegal” (Biomolecules, 2021).

Columns and labels:
α-glucosidase = α-glucosidase inhibitor assay (colorimetric kit); format: biochemical
Protocol: (§1) α-glucosidase and α-amylase inhibitor screening kits (colorimetric) were purchased from Biovision (Milpitas, CA, USA). In total, 10 mM of stock solution of all the tested compounds were dissolved in DMSO and serially diluted in the assay buffer of each kit. Experiments were performed according to the manufacturer’s protocol. Briefly, for the α-glucosidase assay, 10 µL of serially diluted compounds at the corresponding concentration ([…]–1 mM) were added into designated wells of clear 96 well-plates. Subsequently, 10 µL of the α-glycosidase enzyme was added to each well and volume was adjusted to 80 µL and plates were incubated for 15-min at room temperature in dark condition. Then, 20 µL of α-glycosidase substrate mixture was added in all wells and kinetic of reaction was measured at OD: 410 nm for 60 min at 2 min intervals by using a multiplate reader, Biotek instrument, Inc., Canada. Enzyme control (no inhibitor), background control (no enzyme), solvent control (DMSO) and inhibitor control (acarbose) were included in the plates. For the α-amylase assay, 50 µL of serially diluted compounds (3.25 µM to 500 µM) were added into a clear 96-well plate with 50 µL of assay buffer and 50 µL of α-amylase enzymes. The plate was incubated at room temperature in the dark for 10 min. Then 50 µL of the α-amylase substrate was added in all wells. The kinetic of reaction was measured at OD:410 nm for 26 min at intervals of 2 min by using a multiplate reader. Control α-amylase inhibitor was provided by the manufacturer, enzyme control, background control and solvent control were all included. Enzyme inhibition was calculated according to Zhang et al. (2014). In summary, ODs were plotted according to the time for each sample. Areas under the curve (AUC) were calculated, and enzyme inhibition was measured as 100−(AUCcompound/AUCenzyme) × 100 for each dilution of each compound.

[1] = test system: VSV-G pseudotyped HIV-1GFP; assay: VSV-G pseudotyped HIV-1GFP infectivity assay in THP-1 cells; format: cell-based; details: for Infection (mean % HIV-1GFP+ cells): 100 μM, THP-1, MOI 1, 72 h, DMSO 8.16%; for Fold decrease in infection: 50 μM, THP-1, 72 h; for Infection levels at lower concentrations: below 50 μM (12.5, 25 μM)
in vitro [2] = details: human, HaCaT immortalized keratinocytes
Source text: (§2) HeLa cervical cancer cells (CCL-2) and A431 (ATCC-CRL1555) human epidermoid carcinoma cells were from American Type Culture Co [...

in vitro [3] = details: human; for IC50 at 24 h: HeLa cervical cancer cells
Source text: as §2

THP-1 cells = assay: Propidium iodide cytotoxicity in THP-1 cells; details: 72 h; for PI+ cells: 100 μM; for Dead cells: all concentrations tested (12.5-100 μM)
in vitro [4] = details: human, A431 epidermoid carcinoma cells
Source text: as §2

[5] = test system: acetylcholinesterase (AChE); assay: Anti-acetylcholinesterase assay (Ellman); format: biochemical
Protocol: In vitro acetylcholinesterase (AChE) activity was assessed exactly as in Ka et al. (2020) following Ellman’s colorimetric protocol with the Acetylcholinesterase Assay Kit (Abcam Inc., Boston, MA, USA). Briefly, 50 µL serial dilutions (3.9–500 µM) of compounds 1–5 were prepared in Tris-HCl pH = 7.9 buffer into designated wells of a clear 96 well-plate. A total of 5 µL of DTNB was added in each well, then 50 µL of diluted acetycholinesterase was added. The plate was incubated for 10 min in the dark. Matched concentrations of DMSO were used as a negative control. Kinetic of reaction was measured in a multiple plate reader at 410 nm in kinetic mode for 40 min at room temperature. The percentage of anti-AChE inhibition was calculated according to the following formula: 100 − [((E − S)/E) × 100], where E is the activity of the enzyme with matched concentrations of DMSO and S is the activity of the enzyme with the test sample.

[6] = test system: HaCaT, HeLa and A431 cells; assay: γ-H2AX foci immunofluorescence (DNA damage); format: cell-based, human; details: 10 μM, 24 h, all tested cell lines
Protocol: Cells were seeded in 35 mm dishes on micro cover glasses (BDH) and treated with the metabolite at a concentration of 10 μM. […] Cells were permeabilized with ice-cold 0.5% Triton X-100 for 5 min and then washed with PBS. Cells were then incubated with phospho-histone H2A.X (Ser139) antibody (from Cell Signaling Technologies 9542, Boston, MA, USA) for 1 h, followed by DAPI (Sigma-Aldrich) for 3 min and washed with PBS/0.05% Tween. Coverslip was mounted with Ibidi mounting medium (Ibidi GmbH, Martinsried, Germany). Images were taken with a Zeiss confocal laser-scanning microscope Axio Observer (Zeiss, Ostfilden, Germany) (scale bar, 20 μm). A 40× objective was used and image analysis was performed using Fiji ImageJ open source software project (https://imagej.net/imaging/). All the images were taken with the same setting.

HaCaT cells = assay: DCFDA assay (ROS); format: cell-based, human; details: for Production of reactive oxygen species (ROS): 10 µM, HaCaT cells
Protocol: N-p-coumaroyltyramine antioxidant activity was measured using 2′−7′dichlorofluorescein diacetate (DCFDA), a non-fluorescent compound permeable to the cell membrane, which can be oxidized by reactive oxygen species (ROS) giving a fluorescent compound. […] The medium was removed after 4 h and 1 mM (3%) H2O2 was added for 45 min, 1.5 and 2.0 h. Cells were washed with PBS and a fresh medium with DCFDA ([…]) was added for 45 min, then DCFDA was removed by washing in PBS and the cells were harvested. The measurement of ROS was obtained using the Sinergy H4 microplate reader (Gen5 2.07, Thermofisher, Waltham MA, USA). The fluorescence emitted from the cells treated with DCFDA was compared to the untreated cells. Trolox was used as a positive control. Values shown in the plot are mean ± SD of sixfold determinations. The mean and the standard deviation were calculated on biological triplicates using GraphPad Prism 8.0.2 software (GraphPad, San Diego, CA, USA).

[7] = test system: HaCaT immortalized keratinocytes; details: for Effect on HaCaT cell viability: incubation extended for 48 h, 0.5 to 10 μM
Source text: as §2

[8] = test system: ovarian carcinoma, melanoma and non-small lung cancer cells; parameters: method as in PMID 23659371; details: cited from earlier work
[9] = test system: HeLa cervical cancer cells; details: 0.5 to 10 μM, 24 and 48 h
Source text: as §2

α-amylase = α-amylase inhibitor assay (colorimetric kit); format: biochemical; details: concentrations 3.9-250 μM, 26 min kinetics
Protocol: as §1, with “For the α-amylase assay, 50 µL of serially diluted compounds (3.25 µM to 500 µM) were added into a clear 96-well plate with 50 µL of assay buffer and 50 µL of α-amylase enzymes. The plate was incubated at room temperature in the dark for 10 min. Then 50 µL of the α-amylase substrate was added in all wells.” left out, “Control α-amylase inhibitor was provided by the manufacturer, enzyme control, background control and solvent control were all included.” left out, “In summary, ODs were plotted according to the time for each sample.” left out

[10] = test system: A431 human epidermoid carcinoma cells; details: 0.5 to 10 μM, 24 and 48 h
Source text: as §2

Zika virus (ZIKV) = test system: Zika virus (ZIKV); parameters: method as in PMID 34152811; details: read-out: ZIKV replication EC50; cited from earlier work
[11] = test system: human immunodeficiency virus type 1 (HIV-1); parameters: method as in PMID 34152811; details: cited from earlier work
Dengue virus (DENV) = test system: Dengue virus (DENV); parameters: method as in PMID 34152811; details: read-out: DENV replication EC50; cited from earlier work
[12] = increasing inhibition from 15.6 μM to 250 μM

Structure (SMILES) | α-glucosidase inhibition (α-glucosidase; 1 mM) | Infection (mean % HIV-1GFP+ cells) [1] | IC50 at 24 h (in vitro [2]) | IC50 at 24 h (in vitro [3]) | PI+ cells (THP-1 cells) | IC50 at 24 h (in vitro [4]) | AChE inhibition [5, 12] | Nuclear γH2AX foci [6] | Fold decrease in infection [1] | Infection levels at lower concentrations [1] | Dead cells (THP-1 cells) | Production of reactive oxygen species (ROS) (HaCaT cells) | Effect on HaCaT cell viability [7] | further results
COc1cc2c(c(OC)c1OC)C(=O)C(Cc1ccc(O)cc1)CO2 (centres unmarked) [Compound 1, 5,6,7-trimethoxy-3-(4-hydroxybenzyl)chroman-4-one] | 50% | 3.78% | > 10 µM | 1 µM | 8.74% | 6 µM | up to 20% |  |  |  |  |  |  | viability at 48 h, 5 µM (in vitro [3]; HeLa cervical cancer cells (CCL-2)): < 20%
COc1cc2c(c(OC)c1OC)C(=O)C(O)(Cc1ccc(O)cc1)CO2 (centres unmarked) [Compound 2, 3-hydroxy-5,6,7-trimethoxy-3-(4-hydroxybenzyl)chroman-4-one] | 50% | 4.03% | > 10 µM | 4 µM | 4.15% | > 10 µM | up to 20% |  |  |  |  |  |  | 
COc1ccc(CC2(O)COc3cc(OC)c(OC)c(OC)c3C2=O)cc1 (centres unmarked) [Compound 3, 3-hydroxy-5,6,7-trimethoxy-3-(4-methoxybenzyl)chroman-4-one] | 50% | 2.51% | > 10 µM | 4.5 µM |  | 4 µM |  | remarkable increase | 2.0 fold | decreased infection levels | 30–40% | did not increase | significant reduction | Antiproliferative activity [8]: submicromolar concentration; AChE enzyme activity blocked ([5]; concentrations increased from 3.9 to 500 μM): 15–30%
COc1ccc(CC2COc3cc(OC)c(OC)c(OC)c3C2=O)cc1 (centres unmarked) [Compound 4, 5,6,7-trimethoxy-3-(4-methoxybenzyl)chroman-4-one] |  | 2.76% | > 10 µM | 5.5 µM |  | 6.5 µM | up to 20% | remarkable increase | 2.4 fold | decreased infection levels | 30–40% | did not increase | significant reduction | 
O=C(/C=C/c1ccc(O)cc1)NCCc1ccc(O)cc1 [Compound 5, (E)-N-(4-hydroxyphenethyl)-3-(4-hydroxyphenyl)acrylamide] |  | 2.12% |  |  | 5.97% |  |  |  | 1.6 fold |  |  |  |  | α-glucosidase inhibition (α-glucosidase; all concentrations tested, 0.01-1000 μM): nearly completely inhibited; Toxicity on HeLa cancer cells [9]: toxic; IC50 (α-amylase): 40 µM; Antioxidant activity: ROS induced by H2O2 (HaCaT cells; 10 and 100 µM, 4 h pre-treatment, H2O2 1 mM, Trolox positive control): antioxidant activity comparable to Trolox; Effect on HaCaT cell viability at the lower concentrations ([7]; 0.5 and 1 μM): significantly increase HaCaT cell viability; Cytotoxic activity IC50, HaCaT ([7]; MTT, 24 h of incubation): Not detected; Toxicity on A431 cancer cells [10]: toxic; AChE inhibition ([5]; high concentrations): weakly inhibited
COc1cc2c(cc1O)CN(C)C[C@H]2c1ccc(O)cc1 [cherylline] |  |  |  |  |  |  |  |  |  |  |  |  |  | EC50 (Zika virus (ZIKV)): 20.3 µM; Effect on HIV-1 infection [11]: ineffective; EC50 (Dengue virus (DENV)): 8.8 µM
